Several values for one entry are separate records, joined by “and”; a condition that tells them apart may be missing. Equal entries are not always repeated. Entries after “also recorded” stand apart in the source; their conditions may differ. Where two headings read alike, the source gives them in different places.
Assays:
[1] = test system: hypertensive (ang II) mice; test: Murine model of ang II-mediated hypertension with inducible AF; type: in vivo; conditions: for AF burden / AF susceptibility (total inducible AF): 2-HOBA and 4-HOBA 1G/L in drinking water
Text: Experimental hypertension: Evidence for IsoLGs in AF susceptibility. Oxidative stress and PAO burden in human atrium are linked to HTN. […] The present inventors have determined that IsoLGs are mediators for AF susceptibility in HTN using a murine model (2 wk mini-pump infusion of angiotensin II [ang II]), in which mice develop sustained HTN and inducible AF. […] Importantly, mass spectrometry data have confirmed this finding (FIG. 5B), with a striking 100 fold increase in atrial adduct formation during HTN (2-3 fold greater increase than that seen in Alzheimer's brain). In addition, PAOs accumulated in the atria of hypertensive compared to control mice (FIGS. 5C and D). […] As expected, hypertensive mice developed inducible AF compared to control (FIG. 7). […] Normalization of BP in ang II-treated mice with hydralazine/HCTZ prevented AF susceptibility, while mechanical stretch of atrial myocytes generated both LG adducts (FIG. 9) and PAOs (not shown), signifying a critical role of atriomyocyte stretch. The AF substrate was reversible by 2 wks after stopping ang II (85% reduction in total AF burden), with partial normalization of BP (74%; n=13, data not shown). Of note, 2-HOBA had no effects on any ECG parameters in HTN mice.

[2] = test system: mice fed a high-fat diet (HFD); test: Mouse model of diet-induced obesity (DIO) with inducible AF; type: in vivo; conditions: 12 weeks, co-treatment
Text: Experimental obesity: Evidence for IsoLGs in AF susceptibility. Given that obesity is also linked to inflammation and oxidative stress, we have begun studies to investigate the role of IsoLGs in a mouse model of diet-induced obesity (DIO). […] Thus, in the early stages of both HTN and obesity, the present inventors show a role for IsoLGs in the AF substrate. In both HTN and obesity, AF was inducible in the absence of fibrosis, with reversibility in HTN. These findings imply that IsoLGs constitute an early pathologic target, and that their inhibition could potentially prevent the development of AF. In the proposed studies, we will confirm the critical role of IsoLGs using rigorous experimental approaches. For these studies, we use well-characterized murine models of HTN and obesity described above and routinely employed.
The following data are for 12 week-treated animals.

[3] = test system: IsoLGs; conditions: cited from earlier work
[4] = test system: atrial HL-1 cells; test: Cytotoxicity of ANP oligomers to atrial HL-1 cells (ATP production); type: cell-based; conditions: peptide oligomers, 24 hr exposure; listed as ANP oligomers
Protocol: Mutant ANP is highly fibrillogenic, generating cytotoxic PAOs. To compare oligomer formation between WT and mutant ANP, Western analysis was performed on peptides allowed to oligomerize at 23° C. for variable time points. […] For amyloid β1-42, oligomer toxicity is a transient, time-dependent phenomenon, in the progression from monomers to PAOs to fibrils. To investigate this process for WT and mutant ANP, peptides incubated in vitro to generate oligomers over different time periods were incubated with atrial HL-1 cells for 24 hr. For WT ANP, proteotoxicity (manifested by decreased cellular ATP production) was maximal for PAOs generated during a 2 wk incubation, while for mutant ANP, the time point of maximal oligomer cytotoxicity occurred much earlier, within ˜3 d (FIG. 14). Cytotoxicity was confirmed by measuring cellular oxygen consumption rate using extracellular flux analysis (Seahorse Bioscience XFE96). Thus, oligomers formed by both WT and mutant ANP cause atrial myocyte dysfunction, as evidenced by reduced cardiomyocyte ATP production, with proteotoxicity occurring earlier for mutant compared to WT ANP, consistent with accelerated oligomer formation.

[5] = biological target: COX1 (Homo sapiens, UniProt P23219); conditions: cited from earlier work
[6] = test system: atrial HL-1 cells; test: Rapid pacing of cultured atrial HL-1 cells (cellular model simulating AF); type: cell-based
Text: Protein oligomers and IsoLGs in a cellular model simulating AF. […] Moreover, exposure of unpaced cells to a physiologic concentration of IsoLGs caused cytosolic PAO production, similar to that observed with rapid pacing (FIG. 4, top panels).

[7] = test system: ROS; conditions: cited from earlier work
[8] = in vitro studies, in vivo studies in mice, pre-clinical toxicology studies; cited from earlier work
[9] = test system: hypertensive (ang II) mice; conditions: ang II-mediated HTN in mice, earlier work (Kirabo and colleagues), cited from earlier work
[10] = test system: mouse model of Alzheimer's disease; conditions: cited from earlier work
[11] = biological target: T1, COX2 (Homo sapiens, UniProt P35354); conditions: cited from earlier work
T1 sequence (P35354 18-604): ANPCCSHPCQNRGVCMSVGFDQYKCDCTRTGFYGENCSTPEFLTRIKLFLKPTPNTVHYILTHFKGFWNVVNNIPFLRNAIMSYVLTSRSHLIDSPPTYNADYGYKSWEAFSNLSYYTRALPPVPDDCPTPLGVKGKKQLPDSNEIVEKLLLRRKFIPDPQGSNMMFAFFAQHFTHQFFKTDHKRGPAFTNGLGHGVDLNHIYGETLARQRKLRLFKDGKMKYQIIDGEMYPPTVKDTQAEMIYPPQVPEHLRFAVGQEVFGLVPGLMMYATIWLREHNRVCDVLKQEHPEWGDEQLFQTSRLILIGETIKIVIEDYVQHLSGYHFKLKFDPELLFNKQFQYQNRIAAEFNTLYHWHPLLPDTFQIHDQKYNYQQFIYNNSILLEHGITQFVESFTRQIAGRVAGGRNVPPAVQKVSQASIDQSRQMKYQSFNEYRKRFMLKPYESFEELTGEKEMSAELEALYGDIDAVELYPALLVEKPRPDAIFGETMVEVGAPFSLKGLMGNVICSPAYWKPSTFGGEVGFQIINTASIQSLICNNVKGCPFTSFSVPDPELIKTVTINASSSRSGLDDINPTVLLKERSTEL

[12] = ang II-treated hypertensive mice
[13] = rapidly paced atrial HL-1 cells in presence of compound
[14] = ang II-treated hypertensive mice, 1G/L in drinking water

Chain of COX1 (P23219 24-599): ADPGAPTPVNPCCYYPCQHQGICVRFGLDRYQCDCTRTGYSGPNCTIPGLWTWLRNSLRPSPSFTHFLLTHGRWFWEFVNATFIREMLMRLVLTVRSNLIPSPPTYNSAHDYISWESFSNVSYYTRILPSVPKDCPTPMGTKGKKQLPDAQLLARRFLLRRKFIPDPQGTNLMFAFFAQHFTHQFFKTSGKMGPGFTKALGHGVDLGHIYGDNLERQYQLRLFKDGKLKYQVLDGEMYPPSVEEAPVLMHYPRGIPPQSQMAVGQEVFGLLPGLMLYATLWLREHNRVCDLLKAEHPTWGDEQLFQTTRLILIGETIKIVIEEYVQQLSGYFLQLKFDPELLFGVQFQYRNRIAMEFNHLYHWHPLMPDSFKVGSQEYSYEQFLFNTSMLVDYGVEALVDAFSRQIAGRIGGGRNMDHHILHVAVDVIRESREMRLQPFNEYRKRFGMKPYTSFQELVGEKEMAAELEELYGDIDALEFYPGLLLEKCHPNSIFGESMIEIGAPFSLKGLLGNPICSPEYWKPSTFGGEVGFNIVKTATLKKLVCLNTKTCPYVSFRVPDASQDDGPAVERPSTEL

For `NCc1ccc(O)cc1` [4-HOBA, reference compound], the “AF burden / AF susceptibility (total inducible AF)” value (shortened to “AF burden / AF susceptibility”) [1, 12] is given as “had no effect”, the “AF burden (total inducible AF)” value [2] is given as “had no effect; also recorded: did not” and the dicarbonyl scavenging activity [3] is given as “cannot scavenge dicarbonyls”.

With “WT ANP: wild-type atrial natriuretic peptide (28 amino acids), incubated to form oligomers” the “cytotoxicity (ATP production by atrial HL-1 cells)” value [4] was “reduced ATP production; also recorded: cytotoxic”.

In the case of “hydralazine/hydrocholorothiazide [hydralazine/HCTZ, reference compound]”, the “AF burden / AF susceptibility” value [1, 12] is reported as “prevented” and the “blood pressure (BP)” value ([1]; ang II-treated mice) is reported as “Normalization”.

In the case of `NCc1ccccc1O` [2-HOBA, 2-hydroxybenzylamine], the “inhibition of COX1 enzyme” value [5] is given as “does not inhibit”, the PAO formation [6, 13] is given as “virtually eliminated and 2-HOBA prevents” and the “myocyte stress response (transcriptional upregulation of Nppb and Hspa1a)” value [6, 13] is given as “blunted”. The isoLG adducts ([6]; rapidly-beating atrial cell model) was 2-HOBA prevents, the ECG parameters ([1]; HTN mice) was “no effects” and the “atrial IsoLG adducts” value [1, 14] was “prevents and markedly reduced and 2-HOBA reduces”. For the same molecule, the “atrial PAO formation” value [1, 14] was “prevents and markedly reduced and 2-HOBA reduces”, the “AF burden / AF susceptibility” value [1, 12] was “suppressed and markedly reduced and 2-HOBA reduces” and the ROS levels [7] was “does not reduce ROS levels significantly”. For the same molecule, the “concentrations of O2·− or F2-Isoprostanes” value ([7]; during in vitro oxidation) was “do not affect”, the safety profile [8] was “excellent safety profile” and the “AF burden (total inducible AF)” value [2] was “suppressed and markedly suppressed and 2-HOBA reduces”. The “blood pressure / antihypertensive effect” value [9] was “effectively lowered; also recorded: prominent antihypertensive effect”, the “blood pressure / antihypertensive effect” value ([9]; listed as salicylamine) was “remarkable therapeutic benefit” and the “development of cognitive impairment / therapeutic benefit” value [10] was “prevent”. The “development of cognitive impairment / therapeutic benefit” value ([10]; listed as salicylamine) was “remarkable therapeutic benefit”, the dicarbonyl scavenging activity [3] was “can also scavenge other injurious lipid dicarbonyl compounds such as MDA” and the “rate of reaction with IsoLGs compared to IsoLG binding to the ε-amine of lysine” value [3] was “much more rapid rate (by several orders of magnitude)”. The “inhibition of COX2 enzyme” value [11] was “does not inhibit”.

Reference: patent publication US20240189291A1, “Prevention And Treatment Of Atrial Fibrillation/Flutter With Gamma-Ketoaldehyde Scavengers” (Vanderbilt University, priority 2016, published 2024)
